The source of these data is patent US8916567B2, “Certain crystalline hydrates, pharmaceutical compositions thereof and methods for preparation and use thereof” (Universal Technology Alliance, Inc., priority 2009, dated 2014).

This data set can be described thus: Stability under high temperature and high humidity (relative humidity 75%, 40° C.). It is filed as physicochemical. The protocol: In order to further evaluate the effect of temperature, humidity and light on the quality of the crystalline compounds of the present disclosure, the hydrates were placed in a dessicator with a relative humidity of 75% and at a constant temperature of 40° C. The samples were then collected at 1, 2, 3, and 6 months. Results are shown in Tables 10-14, wherein the “related substances” mean all of the ingredients in a sample except the active material. The content of the related substances in a sample was measure by HPLC in accordance to the Chinese Pharmacopeia (2005 edition, Part II, Appendix V D).

The mark [1] stands for this setting: water content by TGA, 0 month, hydrate.
Where [2] appears, read: water content by TGA, 1 month, hydrate.
[3] abbreviates: water content by TGA, 2 months, hydrate.
The mark [4] stands for this setting: water content by TGA, 3 months, hydrate.
Where [5] appears, read: water content by TGA, 6 months, hydrate.

Molecules are shown by their SMILES.

For the compound `CC(=O)NC[C@H]1CN(c2ccc(N3CCN(c4ccccc4)CC3)c(F)c2)C(=O)O1` [3/4 hydrate, (S)—[N-3-(3′-fluoro-4′-(4″-phenylpiperazinyl))phenyl-2-oxo-5-oxazolidinyl]methyl acetamide 3/4 hydrate], the Characters entry is, setting by setting: (0 month) “White powder”; (1 month) “White powder”; (2 months) “White powder”; (3 months) “White powder”; (6 months) “White powder”. In addition, the “Related substances (%)” value by setting is: (0 month, HPLC) 0.94%; (1 month, HPLC) 0.88%; (2 months, HPLC) 0.90%; (3 months, HPLC) 0.92%; (6 months, HPLC) 0.93%. Besides, the “TGA (%)” value (0 month, listed as ¾ hydrate, hydrate) was 3.10%; the “TGA (%)” value (1 month, listed as ¾ hydrate, hydrate) is 3.11%; the “TGA (%)” value (2 months, listed as ¾ hydrate, hydrate) stood at 3.10%; the “TGA (%)” value (3 months, listed as ¾ hydrate, hydrate) is recorded as 3.09%; the “TGA (%)” value (6 months, listed as ¾ hydrate, hydrate) came out at 3.10%.

For the compound `CC(=O)NC[C@H]1CN(c2ccc(N3CCN(c4ccccc4)CC3)c(F)c2)C(=O)O1` [1/12 hydrate, (S)—[N-3-(3′-fluoro-4′-(4″-phenylpiperazinyl))phenyl-2-oxo-5-oxazolidinyl]methyl acetamide 1/12 hydrate], the Characters entry by setting is: (0 month) “White powder”; (1 month) “White powder”; (2 months) “White powder”; (3 months) “White powder”; (6 months) “White powder”. Besides, the “Related substances (%)” value amounted to 0.94% (0 month, HPLC); 0.88% (1 month, HPLC); 0.90% (2 months, HPLC); 0.92% (3 months, HPLC); 0.93% (6 months, HPLC). In addition, the “TGA (%)” value reads like this: (0 month, hydrate) 0.40%; (1 month, hydrate) 0.38%; (2 months, hydrate) 0.39%; (3 months, hydrate) 0.40%; (6 months, hydrate) 0.42%.

In the case of `CC(=O)NC[C@H]1CN(c2ccc(N3CCN(c4ccccc4)CC3)c(F)c2)C(=O)O1` [⅖ hydrate, (S)—[N-3-(3′-fluoro-4′-(4″-phenylpiperazinyl))phenyl-2-oxo-5-oxazolidinyl]methyl acetamide 2/5 hydrate], the Characters result (0 month) is recorded as “White powder”; the Characters entry (1 month) is reported as “White powder”; the Characters result (2 months) is “White powder”; the Characters result (3 months) is listed as “White powder”; the Characters entry (6 months) is given as “White powder”. The “Related substances (%)” value reads like this: (by HPLC, 0 month, hydrate) 0.93%; (by HPLC, 1 month, hydrate) 0.89%; (by HPLC, 2 months, hydrate) 0.91%; (by HPLC, 3 months, hydrate) 0.93%; (by HPLC, 6 months, hydrate) 0.92%. Moreover, the “TGA (%)” value under setting [1] turned out to be 1.71%; the “TGA (%)” value under setting [2] was 1.73%; the “TGA (%)” value under setting [3] is reported as 1.70%; the “TGA (%)” value under setting [4] is on record as 1.72%; the “TGA (%)” value under setting [5] is 1.72%.

For `CC(=O)NC[C@H]1CN(c2ccc(N3CCN(c4ccccc4)CC3)c(F)c2)C(=O)O1` [2/7 hydrate, (S)—[N-3-(3′-fluoro-4′-(4″-phenylpiperazinyl))phenyl-2-oxo-5-oxazolidinyl]methyl acetamide 2/7 hydrate], the Characters result (0 month) is “White powder”; the Characters result (1 month) is “White powder”; the Characters result (2 months) is on record as “White powder”; the Characters entry (3 months) is listed as “White powder”; the Characters result (6 months) is given as “White powder”. For the same compound, the “Related substances (%)” value runs as follows: (by HPLC, 0 month, hydrate) 0.91%; (by HPLC, 1 month, hydrate) 0.89%; (by HPLC, 2 months, hydrate) 0.90%; (by HPLC, 3 months, hydrate) 0.91%; (by HPLC, 6 months, hydrate) 0.95%. Besides, the “TGA (%)” value reads like this: under setting [1], 1.20%; under setting [2], 1.21%; under setting [3], 1.19%; under setting [4], 1.23%; under setting [5], 1.21%.

`CC(=O)NC[C@H]1CN(c2ccc(N3CCN(c4ccccc4)CC3)c(F)c2)C(=O)O1` [½ hydrate, (S)—[N-3-(3′-fluoro-4′-(4″-phenylpiperazinyl))phenyl-2-oxo-5-oxazolidinyl]methyl acetamide 1/2 hydrate]: the Characters entry is “White powder” (0 month); “White powder” (1 month); “White powder” (2 months); “White powder” (3 months); “White powder” (6 months). Also, the “Related substances (%)” value turned out to be 0.90% (by HPLC, 0 month, hydrate); 0.88% (by HPLC, 1 month, hydrate); 0.92% (by HPLC, 2 months, hydrate); 0.90% (by HPLC, 3 months, hydrate); 0.94% (by HPLC, 6 months, hydrate). The “TGA (%)” value is, setting by setting: under setting [1], 2.14%; under setting [2], 2.15%; under setting [3], 2.16%; under setting [4], 2.20%; under setting [5], 2.10%.
